{"source": "paper PMC9861386", "about": "“N-Heterocyclic Carbene-Iridium Complexes as Photosensitizers for In Vitro Photodynamic Therapy to Trigger Non-Apoptotic Cell Death in Cancer Cells” (Molecules, 2023)", "assay_type_in_all_cases": "cell-based, human", "key": {"[1]": {"tested_on": "MCF7/FasR and MCF7/FasR/Bcl-xL cells", "test": "GSH quantification (GSH-Glo)", "details": "complex 4a all doses with 458 nm irradiation; TNFα 100 ng/mL; 72 h", "procedure": "ATP and glutathione (GSH) contents were measured with the Promega CellTiter-Glo (Cat#G7570) and GSH-Glo (cat#6911) luminescent assays, respectively, according to the manufacturer’s recommendations.\nFigure 13 Evaluation of apoptotic biomarkers. MCF7/FasR and MCF7/FasR/Bcl-xL cells were irradiated at 458 nm in presence of the indicated concentration of complex 4a or treated with […] TNFα for 72 h. (A) Cytosolic extracts from MCF7/FasR and MCF7/FasR/Bcl-xL cells were separated by SDS-PAGE and probed with anti-PARP, anti-caspase-7 and anti-caspase-8. Migrations indicated are: full-length PARP p113, cleaved PARP p89, full-length caspase-7 and full-length caspase-8. (B) MTT, ATP and GSH assays were evaluated in duplicate samples. Data are expressed as percent (%) of untreated cells and are the means of 3 independent experiments (***, p < 0.0001, NS, not significant)."}, "[2]": {"tested_on": "MCF7/FasR and MCF7/FasR/Bcl-xL cells", "test": "Bcl-xL dependence of cell death, MTT in MCF7/FasR vs MCF7/FasR/Bcl-xL", "details": "complexes: 458 nm irradiation, 10 nM to 1 µM, TNFα 100 ng/mL, 72 h", "from_the_text": "To determine the mechanism of cell death, we used MCF7 cells transfected to express the human Fas receptor (FasR) or doubly transfected to express the human Fas receptor and human Bcl-xL [75]. Since MCF7 cells express the TNF receptor endogenously, this allowed the study of both Fas- and TNFα-mediated apoptosis in the same cell model to assess whether cell death was dependent on the Bcl-2 family of mitochondrial proteins such as Bcl-xL. […]\nMitochondrial outer membrane permeabilization (MOMP), which leads to rapid cell death through the release of mitochondrial proteins (including cytochrome c) that activate executioner caspases, is the critical event in intrinsic apoptosis. […] We then assessed whether the cell death induced by our complexes could be abrogated by the overexpression of Bcl-xL.\nA tetrazolium-based MTT reagent (3-(4,5-dimethylthiazol-2-yl)-2,5-diphenyltetrazolium bromide) was used to determine cell viability, as previously described. […] After solubilization with 500 μL of lysis buffer (DMSO), formazan was quantified by spectrophotometry with a microplate reader at 570 nm absorbance (ClarioSTAR, BMG LabTech, Champigny-sur-Marne, France). […] All results were calculated from data obtained in at least three independent experiments. […]\nFigure 13 Evaluation of apoptotic biomarkers. […] (B) MTT, ATP and GSH assays were evaluated in duplicate samples. […]"}, "[3]": {"tested_on": "MCF7/FasR cells", "test": "Cell death with or without pan-caspase inhibitor z-VAD-fmk, MTT", "details": "TNFα 100 ng/mL, 72 h, MCF7/FasR, MTT", "from_the_text": "To determine the mechanism of cell death, we used MCF7 cells transfected to express the human Fas receptor (FasR) or doubly transfected to express the human Fas receptor and human Bcl-xL [75]. Since MCF7 cells express the TNF receptor endogenously, this allowed the study of both Fas- and TNFα-mediated apoptosis in the same cell model to assess whether cell death was dependent on the Bcl-2 family of mitochondrial proteins such as Bcl-xL. […] This is consistent with findings that death receptors such as FasR and TNFR can mediate apoptosis through both the extrinsic pathway (mitochondria-independent by directly activating executioner caspases via upstream caspase-8) and the intrinsic (mitochondrial) pathway controlled by the Bcl-2 family of proteins.\nWe next evaluated the effect of the pan-caspase inhibitor z-VAD-fmk on caspase signaling. As expected, the treatment with z-VAD-fmk rendered MCF7/FasR cells resistant to TNFα-induced PARP and caspase-7 processing (Figure 14A) and to the loss of cell viability (Figure 14B).\nA tetrazolium-based MTT reagent (3-(4,5-dimethylthiazol-2-yl)-2,5-diphenyltetrazolium bromide) was used to determine cell viability, as previously described. After 72 h of treatment at 37 °C and 5% CO2, cells were incubated with 25 μL MTT solution (5 mg/mL; Sigma-Aldrich) for 4 h. After solubilization with 500 μL of lysis buffer (DMSO), formazan was quantified by spectrophotometry with a microplate reader at 570 nm absorbance (ClarioSTAR, BMG LabTech, Champigny-sur-Marne, France). […] All results were calculated from data obtained in at least three independent experiments.\nFigure 11 Bcl-xL and z-VAD-fmk inhibited by Fas- or TNFα-induced cell death in MCF7 cells. […] Cell death was assessed by MTT assay. […]\nFigure 14 Evaluation of apoptotic biomarkers. […] (B) Cell viability was evaluated in duplicate samples. Data are expressed as percent (%) of untreated cells and are the means of 3 independent experiments (***, p < 0.0001, NS, not significant)."}}, "data": [{"substance": "TNFα", "values": [{"measurement": "level of reduced GSH", "setting": "[1]", "result": "decreased"}, {"measurement": "effect of Bcl-xL overexpression on loss of cell viability", "setting": "[2]", "result": "strongly inhibited by Bcl-xL"}, {"measurement": "reduction in cell viability", "setting": "[3]", "result": "65–85%"}]}]}
